Values of other authors in patent publication US8754089B2, “Heterocyclic compounds and their uses” (Amgen Inc., priority 2009, dated 2014).

Columns and labels:
protein kinases = conditions: cited from earlier work
[1] = ovalbumin-induced airway inflammation; cited from earlier work
p110δ = p110δ (Homo sapiens (Human), UniProt O00329); conditions: cited from earlier work
neutrophil [2] = conditions: cited from earlier work
neutrophil [3] = conditions: cited from earlier work; remark: listed apart in the source
[4] = in vivo; cited from earlier work
[5] = in vivo; cited from earlier work; remark: listed apart in the source

p110δ, sequence (O00329 whole entry, looked up, species assumed): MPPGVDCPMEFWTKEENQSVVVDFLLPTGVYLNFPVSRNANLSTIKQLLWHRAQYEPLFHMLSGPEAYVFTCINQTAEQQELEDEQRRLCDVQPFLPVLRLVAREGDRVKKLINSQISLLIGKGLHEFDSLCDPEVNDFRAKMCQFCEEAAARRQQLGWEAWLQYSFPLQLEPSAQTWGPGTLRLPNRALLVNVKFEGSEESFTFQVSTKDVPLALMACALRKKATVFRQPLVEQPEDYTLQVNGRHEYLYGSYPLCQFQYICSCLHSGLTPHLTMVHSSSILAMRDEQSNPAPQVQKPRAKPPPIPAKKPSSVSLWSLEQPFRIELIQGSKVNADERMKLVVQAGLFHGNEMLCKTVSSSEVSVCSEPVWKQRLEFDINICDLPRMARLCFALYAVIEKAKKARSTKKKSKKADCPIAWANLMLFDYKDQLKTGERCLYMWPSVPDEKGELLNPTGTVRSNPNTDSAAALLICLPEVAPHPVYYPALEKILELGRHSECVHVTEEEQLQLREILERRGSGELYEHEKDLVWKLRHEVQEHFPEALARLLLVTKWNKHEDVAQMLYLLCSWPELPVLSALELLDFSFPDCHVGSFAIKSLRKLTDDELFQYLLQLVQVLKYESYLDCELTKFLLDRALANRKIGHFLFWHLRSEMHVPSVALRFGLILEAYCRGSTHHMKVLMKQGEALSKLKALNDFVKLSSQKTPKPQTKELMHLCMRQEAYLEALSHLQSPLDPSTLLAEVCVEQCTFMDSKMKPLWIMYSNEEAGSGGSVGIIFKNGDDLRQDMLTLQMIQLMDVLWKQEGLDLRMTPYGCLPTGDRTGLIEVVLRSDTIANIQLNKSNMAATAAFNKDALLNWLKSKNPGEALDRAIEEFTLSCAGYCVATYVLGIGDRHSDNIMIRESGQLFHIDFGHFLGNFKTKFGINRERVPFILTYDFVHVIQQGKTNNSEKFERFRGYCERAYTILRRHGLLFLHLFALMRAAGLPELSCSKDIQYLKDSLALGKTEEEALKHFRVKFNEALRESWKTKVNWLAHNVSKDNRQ
p110δ, sequence (P27986 whole entry partner, looked up, species assumed): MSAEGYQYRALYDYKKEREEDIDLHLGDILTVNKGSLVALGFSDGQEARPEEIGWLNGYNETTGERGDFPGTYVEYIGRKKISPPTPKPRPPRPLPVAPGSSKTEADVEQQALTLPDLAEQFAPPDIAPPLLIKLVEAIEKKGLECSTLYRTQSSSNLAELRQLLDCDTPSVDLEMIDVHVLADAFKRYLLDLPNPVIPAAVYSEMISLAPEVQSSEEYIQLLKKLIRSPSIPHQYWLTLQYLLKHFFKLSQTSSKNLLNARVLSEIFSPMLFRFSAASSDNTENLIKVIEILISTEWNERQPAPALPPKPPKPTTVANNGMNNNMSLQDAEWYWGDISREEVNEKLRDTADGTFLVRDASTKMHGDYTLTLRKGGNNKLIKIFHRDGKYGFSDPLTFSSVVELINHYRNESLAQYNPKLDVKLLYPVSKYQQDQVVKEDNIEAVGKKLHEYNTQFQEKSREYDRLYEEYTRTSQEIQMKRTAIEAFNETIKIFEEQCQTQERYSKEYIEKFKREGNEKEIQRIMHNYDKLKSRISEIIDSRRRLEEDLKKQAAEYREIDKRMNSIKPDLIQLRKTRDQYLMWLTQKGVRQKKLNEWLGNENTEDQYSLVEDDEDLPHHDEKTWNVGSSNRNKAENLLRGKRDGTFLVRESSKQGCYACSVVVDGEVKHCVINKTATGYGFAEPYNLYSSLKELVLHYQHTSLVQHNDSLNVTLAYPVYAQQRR

Cc1ccccc1-n1c(Cn2cnc3c(N)ncnc32)nc2cccc(C)c2c1=O [IC87114]
activity against any protein kinases tested (protein kinases): no activity | inflammation and disease in a murine model of asthma [1]: significantly ameliorate inflammation and disease | inhibition of p110δ (p110δ): high nanomolar range (triple digit)

O=c1cc(N2CCOCC2)oc2c(-c3ccccc3)cccc12 [LY294002]
neutrophil migration (neutrophil [2]): block | superoxide release (neutrophil [3]): block

O=C1NC(=O)/C(=C\c2ccc3nccnc3c2)S1 [AS 605240]
onset of disease in a model of systemic lupus erythematosis [4]: delay onset of disease | efficacy in a mouse model of rheumatoid arthritis [5]: efficacious

COC[C@H]1OC(=O)c2coc3c2[C@@]1(C)C1=C(C3=O)[C@@H]2CCC(=O)[C@@]2(C)C[C@H]1OC(C)=O [wortmannin]
neutrophil migration (neutrophil [2]): block | superoxide release (neutrophil [3]): block
